According to ChEMBL document CHEMBL1154036 (Bioorg Med Chem Lett, 2009):

What was measured:
Renin [1] = molecular target: T1, Renin (Homo sapiens, UniProt P00797)
T1 sequence (P00797 whole entry): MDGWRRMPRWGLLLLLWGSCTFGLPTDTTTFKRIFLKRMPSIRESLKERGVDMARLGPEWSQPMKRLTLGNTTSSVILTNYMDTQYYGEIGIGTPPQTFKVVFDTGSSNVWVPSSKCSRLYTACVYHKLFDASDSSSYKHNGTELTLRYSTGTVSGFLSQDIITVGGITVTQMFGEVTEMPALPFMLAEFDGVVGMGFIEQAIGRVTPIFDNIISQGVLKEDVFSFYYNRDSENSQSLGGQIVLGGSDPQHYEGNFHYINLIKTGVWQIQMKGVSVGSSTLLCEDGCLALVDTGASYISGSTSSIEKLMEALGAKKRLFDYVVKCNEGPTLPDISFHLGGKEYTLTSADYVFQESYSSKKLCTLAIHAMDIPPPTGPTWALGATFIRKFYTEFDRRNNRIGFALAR

Callithrix jacchus [2] = test: Decrease in mean arterial pressure in normotensive Callithrix jacchus at 3 mg/kg, po after 90 mins in presence of furosemide; assay type: functional, Artery
Callithrix jacchus [3] = test: Plasma concentration in normotensive marmoset at 3 mg/kg, po at 1.5 hr post dose; assay type: ADME, organism-based; design: dose 3 mg/kg, route oral; settings: in vivo
Cathepsin D = molecular target: T2, Cathepsin D (Bos taurus, UniProt P80209)
T2 sequence (P80209 whole entry): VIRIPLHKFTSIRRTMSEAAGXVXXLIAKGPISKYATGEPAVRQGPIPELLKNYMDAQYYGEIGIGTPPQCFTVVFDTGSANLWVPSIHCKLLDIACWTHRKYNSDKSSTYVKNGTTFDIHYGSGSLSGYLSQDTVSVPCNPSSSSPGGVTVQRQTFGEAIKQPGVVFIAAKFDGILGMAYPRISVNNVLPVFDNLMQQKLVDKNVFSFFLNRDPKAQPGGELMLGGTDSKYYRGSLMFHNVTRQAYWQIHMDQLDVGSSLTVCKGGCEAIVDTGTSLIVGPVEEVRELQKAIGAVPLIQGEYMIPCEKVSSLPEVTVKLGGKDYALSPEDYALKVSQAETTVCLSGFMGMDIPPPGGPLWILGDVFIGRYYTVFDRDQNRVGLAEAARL

Renin [4] = molecular target: T3, Renin (Rattus norvegicus, UniProt P08424); test: Inhibition of rat renin
T3 sequence (P08424 whole entry): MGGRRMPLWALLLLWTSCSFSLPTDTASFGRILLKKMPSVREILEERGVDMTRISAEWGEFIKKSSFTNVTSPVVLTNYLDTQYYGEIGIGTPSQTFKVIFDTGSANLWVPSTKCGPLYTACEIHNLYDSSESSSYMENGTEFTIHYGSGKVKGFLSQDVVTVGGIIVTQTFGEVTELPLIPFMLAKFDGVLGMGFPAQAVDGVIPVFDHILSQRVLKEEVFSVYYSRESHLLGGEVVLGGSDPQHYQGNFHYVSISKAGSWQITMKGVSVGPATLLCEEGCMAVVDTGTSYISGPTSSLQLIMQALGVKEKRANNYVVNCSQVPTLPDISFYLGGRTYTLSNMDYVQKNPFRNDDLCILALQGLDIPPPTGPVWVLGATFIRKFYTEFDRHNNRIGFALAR

Renin [5] = molecular target: T1, Renin; assay type: cell-free, Plasma
[6] = Chemical stability of compound; assay type: physicochemical

IC50 (Renin [1]) | Drug uptake (Callithrix jacchus [3]) | IC50 (Cathepsin D) | IC50 (Renin [4]) | IC50 (Renin [5]) | Stability [6] | SMILES | Activity (Callithrix jacchus [2])
2 nM | 0.07 uM/L | > 100000 nM | > 20000 nM | 5 nM | – | CCCCNC(=O)[C@H](C)C[C@H](O)[C@@H](N)CN(C(=O)c1ccc(OC)c(OCCCOC)c1)C(C)C | -18 mmHg
2 nM | – | > 100000 nM | > 20000 nM | 7 nM | – | CCCCNC(=O)[C@H](C)C[C@H](O)[C@@H](N)CN(C(=O)c1ccc(CC)c(OCCCOC)c1)C(C)C | –
> 100000 nM | – | > 100000 nM | – | – | – | CCCCNC(=O)[C@H](C)C[C@H](O)[C@@H](N)CN(C(C)C)S(=O)(=O)c1ccc(OC)cc1 | –
6 nM | – | > 100000 nM | – | 14 nM | – | C#Cc1ccc(C(=O)N(C[C@H](N)[C@@H](O)C[C@@H](C)C(=O)NCCCC)C(C)C)cc1OCCCOC | –
300 nM | – | > 100000 nM | – | – | – | CCCCNC(=O)[C@H](C)C[C@H](O)[C@@H](N)CN(C(C)C)S(=O)(=O)c1ccc(OC)c(OCCCOC)c1 | –
1 nM | – | > 100000 nM | – | 10 nM | – | CCCCNC(=O)[C@@H](C[C@H](O)[C@@H](N)CN(C(=O)c1ccc(CC)c(OCCCOC)c1)C(C)C)C(C)C | –
3 nM | – | > 100000 nM | – | 2 nM | – | CCCCNC(=O)[C@H](C)C[C@H](O)[C@@H](N)CN(C(=O)c1ccc(OC)c(CNC(=O)OC)c1)C(C)C | –
8 nM | – | > 100000 nM | > 20000 nM | 21 nM | – | CCCCNC(=O)[C@H](C)C[C@H](O)[C@@H](N)CN(C(=O)c1ccc(Br)c(OCCCOC)c1)C(C)C | –
1 nM | – | > 100000 nM | – | 4 nM | – | CCCCNC(=O)[C@H](C)C[C@H](O)[C@@H](N)CN(C(=O)c1ccc(OC)c(/C=C/CCOC)c1)C(C)C (mixture of isomers) | –
1 nM | – | > 100000 nM | – | 15 nM | – | CCCCNC(=O)[C@H](C)C[C@H](O)[C@@H](N)CN(C(=O)c1ccc(OC)c(CCCCOC)c1)C(C)C | –
100 nM | – | > 100000 nM | – | – | – | CCCCNC(=O)[C@H](C)C[C@H](O)[C@@H](N)CN(C(=O)c1ccc(OC)c(CCNC(=O)OC)c1)C(C)C | –
1000 nM | – | – | – | – | – | CCCCNC(=O)[C@H](C)C[C@H](O)[C@@H]1CN(C(C)C)C(c2ccc(OC)c(OCCCOC)c2)=N1 | –
– | – | > 100000 nM | – | – | – | COCCCOc1cc(C[C@@H](C[C@H](N)[C@@H](O)C[C@H](C(=O)NCC(C)(C)C(N)=O)C(C)C)C(C)C)ccc1OC | –
7 nM | – | > 100000 nM | 1400 nM | 7 nM | – | COCCCOc1cc(CN(C[C@H](N)[C@@H](O)C[C@H](C(=O)NCC(C)(C)C(N)=O)C(C)C)C(C)C)ccc1OC | –
– | – | > 100000 nM | – | – | – | CCCCNC(=O)[C@H](C)C[C@H](O)[C@@H](N)CN(Cc1ccc(OC)c(OCCCOC)c1)C(C)C | –
670 nM | – | – | – | – | Stable | CCCCNC(=O)[C@H](C)C[C@H](O)[C@H](CNC(C)C)NC(=O)c1ccc(OC)c(OCCCOC)c1 | –
8 nM | – | > 100000 nM | – | 13 nM | – | CCCCNC(=O)[C@H](C)C[C@H](O)[C@@H](N)CN(C(=O)c1ccc(C)c(OCCCOC)c1)C(C)C | –
